Data: patent US10772847B1, “Combinational fendiline formulations and uses thereof” (UNIVERSITY OF SOUTH FLORIDA, priority 2016, dated 2020)

Assays:
ADAM10 = details: shown recently (introduction); cited from earlier work
cancer cells = details: shown earlier (introduction); cited from earlier work
P-Aurora ABC = assay: Fluorescent microscopy of p-Aurora ABC in CD18 cells; format: cell-based; details: about 24 hours of treatment, FIGS. 26A-26C
Protocol: FIGS. 26A-26C show fluorescent microscopic images of CD18 cells treated with fendiline or Tivantinib as compared to untreated after about 24 hours of treatment and staining with antibodies against p-Aurora ABC or a-tubulin and counterstained with Hoechst.

CC(NCCC(c1ccccc1)c1ccccc1)c1ccccc1 (stereo not drawn) [fendiline]
ADAM10 inhibition (ADAM10): inhibits | cytotoxicity in cancer cells (cancer cells): induces cytotoxicity | aurora ABC phosphorylation (P-Aurora ABC): inhibit
